In US9073915B2, “Substituted pyrimidone derivatives” (SANOFI, priority 2008, dated 2015):
Counter-ions that a name gives are not always drawn.

What was measured:
[1] = molecular target: GSK3β (Homo sapiens, UniProt P49841); assay: Inhibitory activity against GSK3β (33P-ATP phosphorylation of prephosphorylated GS1 peptide, filter assay); type: biochemical; details: protocol 3: 7.5 μM GS1 peptide, 10 μM ATP, 50 mM Hepes pH 7.2, one hour at room temperature
Method: Four different protocols can be used. […]
The reaction was stopped with 100 microliters of a solution made of 25 g polyphosphoric acid (85% P2O5), 126 ml 85% H3PO4, H2O to 500 ml and then diluted to 1:100 before use. […] Incorporated ^33P radioactivity was determined by liquid scintillation spectrometry. […]

Sequence of GSK3β (P49841 whole entry): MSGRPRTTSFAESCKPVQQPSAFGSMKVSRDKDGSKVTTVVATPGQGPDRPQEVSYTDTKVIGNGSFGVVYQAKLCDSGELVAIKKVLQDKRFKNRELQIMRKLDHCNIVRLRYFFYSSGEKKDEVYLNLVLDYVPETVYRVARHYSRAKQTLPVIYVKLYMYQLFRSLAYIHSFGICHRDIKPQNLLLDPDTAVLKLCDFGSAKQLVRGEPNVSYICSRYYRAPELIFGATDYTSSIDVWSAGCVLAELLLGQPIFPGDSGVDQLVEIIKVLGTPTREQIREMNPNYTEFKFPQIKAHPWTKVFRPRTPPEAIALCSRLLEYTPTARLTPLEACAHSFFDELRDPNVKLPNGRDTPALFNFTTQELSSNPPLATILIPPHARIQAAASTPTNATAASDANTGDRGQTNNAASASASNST

melting point [°C] | IC50 [1] [µM] | Structure (SMILES)
220 to 224 | – | COc1ccccc1CCc1cccn2c(=O)cc(-c3ccncc3)nc12 (as salt: hydrochloride) [compound 7, 9-[2-(2-Methoxy-phenyl)-ethyl]-2-pyridin-4-yl-pyrido[1,2-a]pyrimidin-4-one]
261 to 262 | – | O=c1cc(-c2ccncc2)nc2cc(-c3ccccc3)ccn12 (as salt: salt) [Compound No. 4, 8-Phenyl-2-pyridin-4-yl-pyrido[1,2-a]pyrimidin-4-one]
– | 0.49 | O=c1cc(-c2ccncc2)nc2cc(-c3ccccc3)ccn12 [Compound No. 4, 8-Phenyl-2-pyridin-4-yl-pyrido[1,2-a]pyrimidin-4-one]
– | 0.03 | COc1ccccc1CCc1cccn2c(=O)cc(-c3ccncc3)nc12 [compound 7, 9-[2-(2-Methoxy-phenyl)-ethyl]-2-pyridin-4-yl-pyrido[1,2-a]pyrimidin-4-one]
